Test results reported in article PMC5945515, “Measuring glucocorticoid receptor expression in vivo with PET” (Oncotarget, 2018).
Where two headings read alike, the source gives them in different places.

Legend:
[1] = cited from earlier work
human GR = target: T1, human GR (Homo sapiens, UniProt P04150); assay: Competition binding assay on cells, human GR; settings: Supplementary Table 1; read-out: KD for human GR
T1 construct: PC3 and DU145, two human prostate cancer models with endogenous GR expression; endogenous in cells; host or cells: DU145
T1 sequence (P04150 1-777): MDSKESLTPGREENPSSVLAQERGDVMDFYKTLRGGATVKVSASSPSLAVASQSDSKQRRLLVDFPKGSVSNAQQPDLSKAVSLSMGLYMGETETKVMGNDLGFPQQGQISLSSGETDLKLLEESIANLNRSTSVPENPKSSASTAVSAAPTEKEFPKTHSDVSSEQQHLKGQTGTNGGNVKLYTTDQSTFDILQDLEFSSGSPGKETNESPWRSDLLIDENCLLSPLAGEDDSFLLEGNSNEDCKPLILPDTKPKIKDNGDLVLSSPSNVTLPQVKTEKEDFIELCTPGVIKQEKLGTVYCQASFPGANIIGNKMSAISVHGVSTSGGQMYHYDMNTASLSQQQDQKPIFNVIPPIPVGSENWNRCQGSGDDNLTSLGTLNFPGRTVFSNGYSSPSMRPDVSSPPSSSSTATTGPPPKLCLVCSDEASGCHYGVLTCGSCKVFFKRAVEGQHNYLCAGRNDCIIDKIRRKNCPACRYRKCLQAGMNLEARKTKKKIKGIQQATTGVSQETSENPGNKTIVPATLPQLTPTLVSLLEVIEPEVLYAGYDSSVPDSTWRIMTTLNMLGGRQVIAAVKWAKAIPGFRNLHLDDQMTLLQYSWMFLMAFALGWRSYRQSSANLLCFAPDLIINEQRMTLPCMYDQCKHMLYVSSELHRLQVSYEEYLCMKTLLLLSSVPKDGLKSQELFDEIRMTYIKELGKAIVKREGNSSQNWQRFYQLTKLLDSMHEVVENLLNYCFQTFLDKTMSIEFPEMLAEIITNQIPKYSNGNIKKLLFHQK
Experimental: The KD for subfamily 3 group C nuclear hormone receptors was determined on cells by displacing ^3H-steroidal agonists for the respective receptor.
The cold ligands and ^3H-steroids were co-incubated on cells in PBS at room temperature for one hour. Following incubation, the cells were washed twice with ice cold PBS and the unbound activity was retained for analysis. The cells were lysed with 1 mL of 1 M NaOH and collected. Bound and unbound fractions were counted in a liquid scintillation counter and expressed as a percentage of the total activity added per equal relative number of cells. […] The specific binding component was plotted against the log of the competing ligand and curve fit using a non-linear regression algorithm with PRISM software.

[2] = PET/CT and biodistribution in tumor naive C57BL6/J mice; type: in vivo, mouse
[3] = as above; type: in vivo, mouse; remark: listed apart in the source
Experimental: All radiotracers were administered via tail vein injection in < 300 μL PBS. Intact male C57BL6/J or nu/nu mice were treated with vehicle or mife. (25 mg/kg) via oral gavage for four days prior to injection with ∼11 MBq of ^18F-GR02. Mice were anesthetized and imaged with a Siemens Inveon small animal PET/CT at dedicated time points post injection. Each mouse was imaged until 20 million coincident events were collected. All imaging data was reconstructed, decay corrected, and analyzed with AMIDE or ASIPro software. Maximum intensity projections were generated with ASIPro software. ASIPro software was also used to draw manual two dimensional regions of interest to calculate SUV data for static or dynamic acquisitions.
(§1) At dedicated time points post injection, mice were humanely euthanized with CO2 (g) asphyxiation and blood and tissues were removed, washed, dried and weighed. The activity associated with each tissue was measured with a gamma counter. The data was decay corrected and expressed as a percentage of the injected dose per gram of tissue with PRISM software.

GR = settings: cited from earlier work
subcutaneous PC3 tumors = assay: Biodistribution in mice bearing subcutaneous PC3 tumors; type: in vivo, mouse; settings: one hour post injection
Experimental: (§2) All animal experiments were conducted with prior approval from IACUC at UCSF. Five to seven week old male nu/nu, intact or adx C57BL6/J mice were purchased from Charles River. Adx mice were provided drinking water supplemented with 0.9% NaCl (aq.). Male nu/nu mice received a subcutaneous bolus of 1 × 10^7 PC3 or DU145 cells in Matrigel and growth media (1:1 v/v) in the flank for tumor imaging studies with ^18F-GR02. For subrenal capsule tumor implants, 4–6 week old male Rag2 knockout mice (Taconic Farms) were placed under anesthesia with ∼2% isoflurane. A half centimeter dorsal midline incision was performed, and one kidney was gently pulled though the incision by applying pressure to the muscle wall. The kidney capsule was lifted from the parenchyma of the kidney, and PC3 cells (5 × 10^6 in 50 μL PBS) were injected into the pocket under the capsule. […]
(§3) All radiotracers were administered via tail vein injection in < 300 μL PBS. […] All imaging data was reconstructed, decay corrected, and analyzed with AMIDE or ASIPro software. […]
as §1

[4] = Log P determination (octanol:water); type: physicochemical
Experimental: To a microcentrifuge tube containing 1 mL of octanol:water (1:1 v/v) was added 50 μL of ^18F-GR02 (total activity = 37 MBq). The solution was vortexed vigorously for 30 sec, and the biphasic layers were allowed to separate. The layers were manually pipetted into new microcentrifuge tubes, and the activity of each fraction was read with a dose calibrator. The water fraction contained 1.7 MBq, and the octanol fraction contained 35.3 MBq.

[5] = test system: subcutaneous DU145 tumors; assay: Biodistribution in mice bearing subcutaneous DU145 tumors; type: in vivo, mouse; settings: one hour post injection
Experimental: as §2, §3, §1

[6] = test system: subrenal capsule PC3 tumors; assay: Biodistribution in mice bearing subrenal capsule PC3 tumors; type: in vivo, mouse
Experimental: All animal experiments were conducted with prior approval from IACUC at UCSF. Five to seven week old male nu/nu, intact or adx C57BL6/J mice were purchased from Charles River. Adx mice were provided drinking water supplemented with 0.9% NaCl (aq.). Male nu/nu mice received a subcutaneous bolus of 1 × 10^7 PC3 or DU145 cells in Matrigel and growth media (1:1 v/v) in the flank for tumor imaging studies with ^18F-GR02. For subrenal capsule tumor implants, 4–6 week old male Rag2 knockout mice (Taconic Farms) were placed under anesthesia with ∼2% isoflurane. A half centimeter dorsal midline incision was performed, and one kidney was gently pulled though the incision by applying pressure to the muscle wall. The kidney capsule was lifted from the parenchyma of the kidney, and PC3 cells (5 × 10^6 in 50 μL PBS) were injected into the pocket under the capsule. The kidney was placed back and the skin incision was closed using 3 surgical sutures. The mice were treated once with Carprofen (5–10 mg/kg) to ease recovery. Mice were observed over 24 hours for signs of post-operative pain, bleeding and/or other complications. Tumor progression was followed for 7–14 days after surgery with a 14 T Agilent small animal MRI to identify tumors of suitable size to conduct the biodistribution study.
as §1

[7] = intact male nu/nu mice, vehicle
[8] = octanol:water 1:1, total activity 37 MBq
[9] = mouse adrenalectomized, 60 minutes post injection
[10] = mouse intact, 60 minutes post injection

In the case of C=CCC1Oc2cccc(O[11CH3])c2-c2ccc3c(c21)C(C)=CC(C)(C)N3 (stereo not drawn) [[11 C]-Al-438], the logP o/w ([1]; ref PMID 17499506) is listed as 6.13.
With CC12C=CC(=O)C=C1CCC1C2C(O)CC2(C)C1CCC2(O)C(=O)COCCCF (stereo not drawn) [^18F-GR01] the Kd (human GR) was 3.8 nM.
Compound CC12C=CC(=O)C=C1CCC1C2C(O)CC2(C)C1CCC2(O)C(=O)COCCC[18F] (stereo not drawn) [^18F-GR01] has a bone associated activity ([2]; intact male C57BL6/J mice, 60 minutes post injection) of ~20 % ID/g.
In the case of CC#C[C@]1(O)CC[C@H]2[C@@H]3CCC4=CC(=O)CCC4=C3[C@@H](c3ccc(N(C)C)cc3)C[C@@]21C [mife., mifepristone, reference compound], the “effect on 18F-GR02 uptake in several tissues, including liver, kidney and stomach” value ([2]; adx C57BL6/J mice, mife. pretreatment) is reported as “suppressed ^18F-GR02 uptake to a statistically significant extent” and the “effect on 18F-GR02 uptake in liver, spleen, small intestine and stomach” value ([3]; intact C57BL6/J mice, 25 mg/kg daily oral gavage for four days, one hour post injection) is reported as “statistically significant suppression”.
In the case of CC12C=CC(=O)C=C1CCC1C2C(=O)CC2(C)C1CCC2(O)C(=O)C[18F] (stereo not drawn) [21-[18F]-prednisone], the logP o/w ([1]; ref PMID 3495649) is given as 2.1.
For C=CCC1Oc2cccc(OC)c2-c2ccc3c(c21)C(C)=CC(C)(C)N3 (stereo not drawn) [[11 C]-Al-438], the Kd (GR; ref PMID 17499506) is given as 8.1 nM.
For CC1(C)O[C@@H]2C[C@H]3[C@@H]4CCC5=CC(=O)C=C[C@]5(C)[C@@]4(F)[C@@H](O)C[C@]3(C)[C@]2(C(=O)CF)O1 [21-[18F]-deoxytriamcinolone acetonide], the Kd (GR; ref PMID 1526811) is listed as 2.1 nM.
CC12C=CC(=O)C=C1CCC1C2C(O)CC2(C)C1CCC2(O)C(=O)CNC(=O)c1ccc(F)cc1 (stereo not drawn) [^18F-GR02] gave a Kd (human GR) of 15.9 nM.
For CC12C=CC(=O)C=C1CCC1C2C(O)CC2(C)C1CCC2(O)C(=O)CNC(=O)c1ccc([18F])cc1 (stereo not drawn) [^18F-GR02], the “uptake in subcutaneous PC3 tumors after mife.” value (subcutaneous PC3 tumors; four days prior mife. 25 mg/kg) was 0.18 ± 0.07 % ID/g, the “uptake in subcutaneous PC3 tumors” value (subcutaneous PC3 tumors; [7]) was 0.37 ± 0.1 % ID/g and the “activity in the octanol fraction” value [4, 8] was 35.3 MBq. For the same compound, the “activity in the water fraction” value [4, 8] was 1.7 MBq, the “log P (o/w)” value ([4]; octanol:water 1:1 v/v) was 1.33 and the “uptake in subcutaneous DU145 tumors after mife.” value ([5]; four days prior mife. 25 mg/kg) was 0.23 ± 0.09 % ID/g. The “uptake in subcutaneous DU145 tumors” value [5, 7] was 0.45 ± 0.2 % ID/g, the “uptake in the brain across the treatment arms” value ([2]; C57BL6/J mice, intact/adx, vehicle/mife., 60 min post injection) was 0.05–0.2 % ID/g and the Blood [2, 9] was 2.36 ± 1.6 % ID/g. The Bone [2, 9] was 1.25 ± 0.8 % ID/g, the Brain [2, 9] was 0.17 ± 0.05 % ID/g and the Heart [2, 9] was 2.39 ± 0.6 % ID/g. For the same compound, the Kidney [2, 9] was 13.42 ± 3.1 % ID/g, the Liver [2, 9] was 21.83 ± 3.3 % ID/g and the Lung [2, 9] was 2.15 ± 1.0 % ID/g. For the same compound, the Muscle [2, 9] was 1.15 ± 0.4 % ID/g, the Spleen [2, 9] was 1.41 ± 0.6 % ID/g and the Stomach [2, 9] was 5.54 ± 2.4 % ID/g. The Blood [2, 10] was 0.83 ± 0.3 % ID/g, the Kidney [2, 10] was 3.96 ± 1.9 % ID/g and the Liver [2, 10] was 7.98 ± 1.5 % ID/g. For the same compound, the Muscle [2, 10] was 0.36 ± 0.3 % ID/g, the Stomach [2, 10] was 0.62 ± 0.1 % ID/g and the “time of peak accumulation in the liver post injection” value ([2]; one hour dynamic PET scan, intact male C57BL6/J mouse) was ≤ 10 min. For the same compound, the “fold higher uptake in renal capsule tumor vs subcutaneous PC3 tumor” value ([6]; mouse, in vivo, sc) was ~16 fold, the “uptake in renal capsule PC3 tumor after mife.” value ([6]; pretreatment with mife. 25 mg/kg, 60 minutes post injection) was 2.84 ± 1.8 % ID/g and the “uptake in renal capsule PC3 tumor” value ([6]; vehicle, 60 minutes post injection) was 6.24 ± 1.0 % ID/g. For the same compound, the “fold higher specific binding in liver vs prior GR-targeted radiotracers” value ([3]; compared with literature data of Supplementary Table 2) was 3–10 fold, the Bone [3, 10] was 0.28 ± 0.1 % ID/g and the Brain [3, 10] was 0.06 ± 0.02 % ID/g. It also gave a Heart [3, 10] of 0.81 ± 0.5 % ID/g, a Lung [3, 10] of 0.64 ± 0.4 % ID/g and a Spleen [3, 10] of 0.63 ± 0.1 % ID/g.
